Reference: patent publication US7786141B2 (Vertex Pharmaceuticals Incorporated, priority 2004, dated 2010)

Key:
M4 muscarinic receptor = molecular target: T1, M4 muscarinic receptor (Homo sapiens, UniProt P08173); test: Functional mobilization of intracellular calcium (FLIPR) in M4-CHO cells; type: cell-based; details: Table 4; for Emax: 100% efficacy is the maximum response obtained with the Carbachol control; for M4 Activity: modulating M4 receptor
T1 construct: expressed in transfected cells; host or cells: CHO (M4-CHO)
T1 sequence (P08173 1-479): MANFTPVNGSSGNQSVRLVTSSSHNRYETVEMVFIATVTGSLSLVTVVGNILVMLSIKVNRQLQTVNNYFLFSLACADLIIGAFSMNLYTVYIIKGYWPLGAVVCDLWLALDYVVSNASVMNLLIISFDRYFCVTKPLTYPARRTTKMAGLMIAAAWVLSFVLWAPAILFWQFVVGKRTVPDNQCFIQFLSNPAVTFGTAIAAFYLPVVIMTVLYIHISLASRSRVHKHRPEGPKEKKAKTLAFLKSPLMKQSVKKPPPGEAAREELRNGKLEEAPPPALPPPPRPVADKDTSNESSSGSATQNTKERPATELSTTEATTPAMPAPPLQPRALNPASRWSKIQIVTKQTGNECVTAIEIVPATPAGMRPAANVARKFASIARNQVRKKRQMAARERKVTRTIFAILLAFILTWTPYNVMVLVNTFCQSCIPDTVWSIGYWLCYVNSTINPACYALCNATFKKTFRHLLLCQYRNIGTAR
Summary of the method: (§1)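 FLIPR Ca2+ read, ex 488/em 540 nm, 60 s. Recombinant CHO lines (M1 or M4), dye-loaded Fluo-3 AM 60-90 min at 37° C, probenecid 1 mM, pH 7.4. Agonist: compound alone; inhibition: 15 min compound pre-incubation, then carbachol at EC80 for that subtype.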

M1 muscarinic receptor = molecular target: T2, M1 muscarinic receptor (Homo sapiens, UniProt P11229); test: Functional mobilization of intracellular calcium (FLIPR) in M1-CHO cells; type: cell-based; details: Table 4; for Emax: 100% efficacy is the maximum response obtained with the Carbachol control; for M1 Activity: modulating M1 receptor
T2 construct: expressed in transfected cells; host or cells: CHO (M1-CHO)
T2 sequence (P11229 1-460): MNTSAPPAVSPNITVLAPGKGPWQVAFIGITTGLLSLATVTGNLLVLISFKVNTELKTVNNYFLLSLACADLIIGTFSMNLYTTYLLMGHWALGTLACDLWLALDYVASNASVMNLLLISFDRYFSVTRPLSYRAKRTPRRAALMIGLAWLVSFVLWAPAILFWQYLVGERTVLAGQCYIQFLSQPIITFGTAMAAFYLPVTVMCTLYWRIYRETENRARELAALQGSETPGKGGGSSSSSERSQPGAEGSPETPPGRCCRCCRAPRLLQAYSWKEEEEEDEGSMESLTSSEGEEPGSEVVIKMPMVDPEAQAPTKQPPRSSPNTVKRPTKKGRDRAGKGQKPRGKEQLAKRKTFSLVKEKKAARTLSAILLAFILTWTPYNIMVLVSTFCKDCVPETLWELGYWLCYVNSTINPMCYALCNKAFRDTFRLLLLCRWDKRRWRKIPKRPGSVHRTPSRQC
Summary of the method: as §1

Row | Structure (SMILES) | Emax (M4 muscarinic receptor) | M4 Activity (M4 muscarinic receptor) | Emax (M1 muscarinic receptor) | M1 Activity (M1 muscarinic receptor)
1 | CC(=O)N[C@H]1CCC2(CCN([C@@H]3CC4CC[C@@H]3C4)CC2)c2ccccc21 [compound 696] | 25 to 100% | xxx (activity was measured to be less than 2.0 μM) | 25 to 100% | xx (activity was measured to be between 2.0 μM and 5.0 μM)
2 | CC(=O)CN1CCC(N2CCC3(CC2)CN(C(C)=O)c2ccc(F)cc23)CC1 [compound 697] | < 25% | x (activity was measured to be greater than 5.0 μM) | 25 to 100% | x (activity was measured to be greater than 5.0 μM)
3 | CCOC(=O)N1CCCC(N2CCC3(CC2)CN(C(=O)N(C)C)c2ccc(F)cc23)CC1 (stereo not shown) [compound 698] | > 100% | xxx (activity was measured to be less than 2.0 μM) | > 100% | xxx (activity was measured to be less than 2.0 μM)
4 | CCCN1CCC(N2CCC3(CC2)CN(C(C)=O)c2ccc(F)cc23)CC1 [compound 699] | < 25% | x (activity was measured to be greater than 5.0 μM) | < 25% | x (activity was measured to be greater than 5.0 μM)
5 | CCOC(=O)N1CCC(N2CCC3(CC2)CN(c2nc(C)ns2)c2ccccc23)CC1 [compound 700] | > 100% | xxx (activity was measured to be less than 2.0 μM) | > 100% | xxx (activity was measured to be less than 2.0 μM)
6 | CN(C)C(=O)N1CC2(CCN(C3CCN(C(=O)C4CC4)CC3)CC2)c2cc(F)ccc21 [compound 701] | 25 to 100% | xxx (activity was measured to be less than 2.0 μM) | 25 to 100% | xxx (activity was measured to be less than 2.0 μM)
7 | CCO/N=C1\CC2(CCN(CC3CCCCC3)CC2)c2cc(Cl)ccc21 [compound 702] | 25 to 100% | x (activity was measured to be greater than 5.0 μM) | 25 to 100% | x (activity was measured to be greater than 5.0 μM)
8 | CC(=O)N[C@H]1CC2(CCN(C3CCN(C)CC3)CC2)c2ccccc21 [compound 703] | < 25% | x (activity was measured to be greater than 5.0 μM) | < 25% | x (activity was measured to be greater than 5.0 μM)
9 | CC(C)OC(=O)N1CCCC(N2CCC3(CC2)CN(C(=O)N(C)C)c2ccc(F)cc23)CC1 (stereo not shown) [compound 704] | 25 to 100% | xxx (activity was measured to be less than 2.0 μM) | 25 to 100% | xxx (activity was measured to be less than 2.0 μM)
10 | Fc1ccc2c(c1)C1(CCN(C3CC4CCC3O4)CC1)CN2 (stereo not shown) [compound 705] | < 25% | x (activity was measured to be greater than 5.0 μM) | < 25% | x (activity was measured to be greater than 5.0 μM)
11 | CCCOC(=O)N1CC[C@@H](CN2CCC3(CC2)CN(C(=O)N(C)C)c2ccc(F)cc23)C1 [compound 706] | 25 to 100% | xxx (activity was measured to be less than 2.0 μM) | 25 to 100% | xxx (activity was measured to be less than 2.0 μM)
12 | CC(=O)N[C@H]1CC2(CCN(C3CCN(c4cccc(F)n4)CC3)CC2)c2ccccc21 [compound 708] | 25 to 100% | xxx (activity was measured to be less than 2.0 μM) | 25 to 100% | xxx (activity was measured to be less than 2.0 μM)
13 | CC(=O)NC1CCC2(CCN(CCC3CCOCC3)CC2)c2ccccc21 (stereo not shown) [compound 709] | < 25% | xxx (activity was measured to be less than 2.0 μM) | 25 to 100% | xxx (activity was measured to be less than 2.0 μM)
14 | CC(=O)N1CC2(CCN(C3CCN(c4nn[nH]n4)CC3)CC2)c2ccccc21 [compound 710] | 25 to 100% | x (activity was measured to be greater than 5.0 μM) | 25 to 100% | x (activity was measured to be greater than 5.0 μM)
15 | CN(C)C(=O)N1CC2(CCN(C3CCN(c4ccccc4F)CC3)CC2)c2cc(F)ccc21 [compound 711] | < 25% | x (activity was measured to be greater than 5.0 μM) | 25 to 100% | xx (activity was measured to be between 2.0 μM and 5.0 μM)
16 | CCOC(=O)N1CCC(N2CCC3(CC2)CN(C(=O)NCc2ccccc2)c2ccccc23)CC1 [compound 712] | 25 to 100% | xxx (activity was measured to be less than 2.0 μM) | 25 to 100% | xxx (activity was measured to be less than 2.0 μM)
17 | CCOC(=O)N1CCC(N2CCC3(CC2)CN(C(=O)CCOC)c2ccc(F)cc23)CC1 [compound 714] | 25 to 100% | xxx (activity was measured to be less than 2.0 μM) | > 100% | xxx (activity was measured to be less than 2.0 μM)
18 | O=C1CC2(CCN(C3CCCCC3)CC2)c2cc(Cl)ccc21 [compound 715] | 25 to 100% | xxx (activity was measured to be less than 2.0 μM) | 25 to 100% | xxx (activity was measured to be less than 2.0 μM)
19 | CC(=O)NC1CCC2(CCN(C3CCCCC3)CC2)c2ccccc21 (stereo not shown) [compound 716] | 25 to 100% | xxx (activity was measured to be less than 2.0 μM) | 25 to 100% | xxx (activity was measured to be less than 2.0 μM)
20 | CCOC(=O)N1CCC(N2CCC3(CC2)CN(c2ccccc2OC)c2ccc(F)cc23)CC1 [compound 717] | 25 to 100% | xxx (activity was measured to be less than 2.0 μM) | 25 to 100% | xxx (activity was measured to be less than 2.0 μM)
21 | CN(C)C(=O)N1CC2(CCN(C3CCN(C(=O)c4ccccn4)CC3)CC2)c2cc(F)ccc21 [compound 718] | < 25% | x (activity was measured to be greater than 5.0 μM) | < 25% | x (activity was measured to be greater than 5.0 μM)
22 | CCOC(=O)N1CCC(N2CCC3(CC2)CN(C(C)=O)c2ccc(S(C)(=O)=O)cc23)CC1 [compound 719] | < 25% | x (activity was measured to be greater than 5.0 μM) | 25 to 100% | xxx (activity was measured to be less than 2.0 μM)
23 | CN(C)C(=O)N1CC2(CCN(C3CCN(c4ccccn4)CC3)CC2)c2cc(F)ccc21 [compound 720] | 25 to 100% | xxx (activity was measured to be less than 2.0 μM) | 25 to 100% | xx (activity was measured to be between 2.0 μM and 5.0 μM)
24 | CCCCNC(=O)N1CC2(CCN(C3CCN(C(=O)OCC)CC3)CC2)c2ccccc21 [compound 721] | 25 to 100% | xxx (activity was measured to be less than 2.0 μM) | 25 to 100% | xxx (activity was measured to be less than 2.0 μM)
25 | CCOC(=O)N1CCC(CN2CCC3(CC2)CN(C(C)=O)c2c(F)cc(F)cc23)CC1 [compound 722] | 25 to 100% | xxx (activity was measured to be less than 2.0 μM) | 25 to 100% | xxx (activity was measured to be less than 2.0 μM)
26 | CS(=O)(=O)N[C@H]1CCC2(CCN(C3CCCCCC3)CC2)c2ccccc21 [compound 723] | 25 to 100% | xxx (activity was measured to be less than 2.0 μM) | 25 to 100% | xxx (activity was measured to be less than 2.0 μM)
27 | CC(=O)N1CC2(CCN(C3CCN(C(=O)OCC4CC4)CC3)CC2)c2ccccc21 [compound 724] | < 25% | x (activity was measured to be greater than 5.0 μM) | 25 to 100% | xx (activity was measured to be between 2.0 μM and 5.0 μM)
28 | O=C(N[C@H]1CC2(CCN(CCC3CC4CC[C@@H]3C4)CC2)c2ccccc21)N1CCCC1 (stereo partly shown) [compound 726] | < 25% | x (activity was measured to be greater than 5.0 μM) | < 25% | x (activity was measured to be greater than 5.0 μM)
